Experimental data from patent publication US12466831B2, “Substituted amino triazolopyrimidine and amino triazolopyrazine adenosine receptor antagonists, pharmaceutical compositions and their use” (Merck Sharp & Dohme LLC, priority 2018, dated 2025).

Legend:
[1] = target: T1, human A2b adenosine receptor (Homo sapiens, UniProt P29275); assay: A2b binding affinity, radioligand filtration binding assay; conditions: tritiated proprietary A2b antagonist, HEK293 membranes expressing human A2b
T1 construct: purchased Perkin Elmer ES-013-C; host or cells: HEK293 cells recombinantly expressing the receptor; membranes made from them
T1 sequence (P29275 1-332): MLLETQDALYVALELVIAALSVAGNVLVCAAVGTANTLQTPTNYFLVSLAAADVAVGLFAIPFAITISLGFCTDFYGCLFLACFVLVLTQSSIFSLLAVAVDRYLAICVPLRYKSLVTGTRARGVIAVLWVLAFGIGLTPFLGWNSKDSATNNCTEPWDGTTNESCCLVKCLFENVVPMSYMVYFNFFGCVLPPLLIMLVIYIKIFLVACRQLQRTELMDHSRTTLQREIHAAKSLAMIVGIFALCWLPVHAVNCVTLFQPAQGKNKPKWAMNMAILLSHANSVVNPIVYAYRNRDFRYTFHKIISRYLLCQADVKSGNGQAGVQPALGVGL
From the text: (§1) Method (A) describes the procedure used to measure A2a binding affinity using radioligand binding. Method (B) describes the procedure used to measure A2a binding affinity using SPA technology. The method used to measure A2b binding affinity is also described below. The method used to determine the A2a IC50 value reported for each compound in the table is indicated next to the reported value. The A2b IC50 value measured using the A2b binding affinity assay is shown in the table next to the compound under the corresponding A2a value.
Measurement of A2b Binding Affinity
The reported affinity of the compounds of the invention for the human A2b adenosine receptor was determined experimentally using a radioligand filtration binding assay. This assay measures the amount of binding of a tritiated proprietary A2b receptor antagonist, in the presence and absence of a compound of the invention, to membranes made from HEK293 cells recombinantly expressing the human A2b adenosine receptor (Perkin Elmer, Cat. No. ES-013-C).
148 μL (135 μg/mL) membranes and 2 μL test compounds were transferred to individual wells of a 96-well polypropylene assay plate and incubated for 15 to 30 minutes at room temperature with agitation. Tritiated radioligand was diluted to a concentration of 14 nM in assay buffer (phosphate buffered saline without Magnesium and Calcium, pH 7.4; GE Healthcare Life Sciences, Cat. No. SH30256.01) and then 50 μL of the solution were transferred to each well of the assay plate. To define total and non-specific binding, wells containing 1% DMSO and 20 μM N-ethylcarboxamidoadenosine (Tocris Bioscience, Cat. No. 1691) respectively, were also included. The wells of the assay plate were incubated at room temperature for 60 minutes with agitation, then filtered using a FilterMate Harvester® (Perkin Elmer) or similar equipment through a UniFilter-96® PEI coated plate (Perkin Elmer Cat. No. 6005274 or 6005277). Filtering was achieved by aspirating the contents of the assay plate for 5 seconds, then washing and aspirating the contents three times with ice-cooled wash buffer (assay buffer supplemented with 0.0025% Brij58) and allowing the vacuum manifold to dry the plate for 30 seconds. The filter plate was incubated for at least 1 hour at 55° C. and allowed to dry. The bottom of the filter plate was then sealed with backing tape. 40 μL Ultima Gold™ (Perkin Elmer, Cat. No. 6013329) was added to each well of the filter plate and the top of the plate was sealed with TopSeal-A PLUS® clear plate seal (Perkin Elmer, Cat. No. 6050185). The plates were then incubated for at least 20 minutes, and then the amount of radioactivity remaining in each well was determined using a TopCount® (Perkin Elmer) scintillation counter. After normalization to total and non-specific binding, the percent effect at each compound concentration was calculated. The plot of percent effect versus the log of compound concentration was analyzed electronically using a 4-parameter logistic fit based on the Levenberg-Marquardt algorithm to generate IC50 values.

[2] = target: T2, human A2a adenosine receptor (Homo sapiens, UniProt P29274); assay: A2a binding affinity using radioligand binding, Method (A); conditions: Method (A): [3H]SCH58261 filtration binding, membranes expressing human A2a
T2 construct: purchased Perkin Elmer RBHA2aM400UA; host or cells: HEK293 or CHO cells (recombinant expression)
T2 sequence (P29274 whole entry): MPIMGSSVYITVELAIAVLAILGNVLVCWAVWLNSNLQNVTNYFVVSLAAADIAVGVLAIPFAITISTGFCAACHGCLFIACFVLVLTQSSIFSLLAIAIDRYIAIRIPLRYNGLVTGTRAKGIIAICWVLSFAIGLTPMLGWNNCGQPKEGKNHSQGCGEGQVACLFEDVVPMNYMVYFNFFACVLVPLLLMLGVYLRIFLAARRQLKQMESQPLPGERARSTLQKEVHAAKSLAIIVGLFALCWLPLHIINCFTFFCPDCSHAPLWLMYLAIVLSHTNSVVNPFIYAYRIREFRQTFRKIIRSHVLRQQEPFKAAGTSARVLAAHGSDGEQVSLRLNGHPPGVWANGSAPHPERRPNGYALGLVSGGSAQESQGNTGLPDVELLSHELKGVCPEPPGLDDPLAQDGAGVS
From the text: as §1
The A2a receptor affinity binding assay measured the amount of binding of a tritiated ligand with high affinity for the A2a adenosine receptor to membranes made from HEK293 or CHO cells recombinantly expressing the human A2a adenosine receptor, in the presence of varying concentrations of a compound of the invention. The data were generated using either filtration binding or a homogenous scintillation proximity assay (SPA).
Method (A): Measurement of A2a Binding Affinity Using Radioligand Binding
148 μL (5 μg/mL) membranes (Perkin Elmer, Cat. No. RBHA2aM400UA) and 2 μL compounds of the invention to be tested (test compound) were transferred to individual wells of a 96-well polypropylene assay plate and incubated for 15 to 30 minutes at room temperature. [^3H] SCH58261 ((7-(2-phenylethyl)-5-amino-2-(2-furyl)-pyrazolo-[4,3-e]-1,2,4-triazolo[1,5-c]pyrimidine)) was diluted in assay buffer (50 mM Tris pH 7.4, 10 mM MgCl2, 0.005% Tween20) to a concentration of 4 nM and 50 μL transferred to each well of the assay plate. To define total and non-specific binding, wells containing 1% DMSO and 1 μM ZM241385 (Tocris Bioscience, Cat. No. 1036) respectively, were also included. The assay plate was incubated at room temperature for 60 minutes with agitation. Using a FilterMate Harvester® (Perkin Elmer), the contents of the assay plate were filtered through a UniFilter-96® PEI coated plate (Perkin Elmer Cat. No. 6005274 or 6005277). Filtering was achieved by aspirating the contents of the assay plate for 5 seconds, then washing and aspirating the contents three times with ice-cooled wash buffer (50 mM Tris-HCl pH 7.4, 150 mM NaCl) and allowing the vacuum manifold to dry the plate for 30 seconds. The filter plate was incubated for at least 1 hour at 55° C. and allowed to dry. The bottom of the filter plate was sealed with backing tape. 40 μL Ultima Gold™ (Perkin Elmer, Cat. No. 6013329) was added to each well of the filter plate and the top of the plate was sealed with TopSeal-A PLUS® clear plate seal (Perkin Elmer, Cat. No. 6050185). The plate was incubated for at least 20 minutes, and then the amount of radioactivity remaining in each well was determined using a TopCount® (Perkin Elmer) scintillation counter. After normalization to total and non-specific binding, the percent effect at each compound concentration was calculated. The plot of percent effect versus the log of compound concentration was analyzed electronically using a 4-parameter logistic fit based on the Levenberg-Marquardt algorithm to generate IC50 values.

IC50 [1]	IC50 [2]	Compound
250 nM	72.9 nM	Cc1c(-c2ncco2)nc(N)n2nc([C@H]3C[C@@H](O)C3)nc12 [Example 2.8, (1s,3s)-3-(5-amino-8-methyl-7-(oxazol-2-yl)-[1,2,4]triazolo[1,5-c]pyrimidin-2-yl)cyclobutan-1-ol]
2410 nM	129 nM	Cc1c(-c2ncco2)nc(N)n2nc([C@@H]3CC[C@H](C)NC3)nc12 [Example 2.9, 8-methyl-2-((3R,6S)-6-methylpiperidin-3-yl)-7-(oxazol-2-yl)-[1,2,4]triazolo[1,5-c]pyrimidin-5-amine]
19.8 nM	1 nM	Cc1c(-c2ncco2)nc(N)n2nc([C@@H]3CC[C@H](C)N(c4cnn(CC(C)(C)O)c4)C3)nc12 [Example 2.12, 1-(4-((2S,5R)-5-(5-amino-8-methyl-7-(oxazol-2-yl)-[1,2,4]triazolo[1,5-c]pyrimidin-2-yl)-2-methylpiperidin-1-yl)-1H-pyrazol-1-yl)-2-methylpropan-2-ol]
1310 nM	47.9 nM	Cc1c(-c2ncco2)nc(N)n2nc([C@H]3CC[C@@H](C)N(c4cnn(CC(C)(C)O)c4)C3)nc12 [Example 2.13, 1-(4-((2R,5S)-5-(5-amino-8-methyl-7-(oxazol-2-yl)-[1,2,4]triazolo[1,5-c]pyrimidin-2-yl)-2-methylpiperidin-1-yl)-1H-pyrazol-1-yl)-2-methylpropan-2-ol]
17.6 nM	1.2 nM	CCn1cc(N2C[C@H](c3nc4c(C)c(-c5ncco5)nc(N)n4n3)CC[C@@H]2C)cn1 [Example 2.14, 2-((3R,6S)-1-(1-ethyl-1H-pyrazol-4-yl)-6-methylpiperidin-3-yl)-8-methyl-7-(oxazol-2-yl)-[1,2,4]triazolo[1,5-c]pyrimidin-5-amine]
2400 nM	20 nM	CCn1cc(N2C[C@@H](c3nc4c(C)c(-c5ncco5)nc(N)n4n3)CC[C@H]2C)cn1 [Example 2.15, 2-((3S,6R)-1-(1-ethyl-1H-pyrazol-4-yl)-6-methylpiperidin-3-yl)-8-methyl-7-(oxazol-2-yl)-[1,2,4]triazolo[1,5-c]pyrimidin-5-amine]
82.6 nM	8.8 nM	CCn1cc(N2C[C@H](c3nc4c(C)c(-c5cccc(F)c5)nc(N)n4n3)CC[C@@H]2C)cn1 [Example 2.16, 2-((3R,6S)-1-(1-ethyl-1H-pyrazol-4-yl)-6-methylpiperidin-3-yl)-7-(3-fluorophenyl)-8-methyl-[1,2,4]triazolo[1,5-c]pyrimidin-5-amine]
2150 nM	47.6 nM	CCn1cc(N2C[C@@H](c3nc4c(C)c(-c5cccc(F)c5)nc(N)n4n3)CC[C@H]2C)cn1 [Example 2.17, 2-((3S,6R)-1-(1-ethyl-1H-pyrazol-4-yl)-6-methylpiperidin-3-yl)-7-(3-fluorophenyl)-8-methyl-[1,2,4]triazolo[1,5-c]pyrimidin-5-amine]
155 nM	0.9 nM	CCn1cc(N2CCC[C@@H](c3nc4c(C)c(-c5ncco5)nc(N)n4n3)C2)cn1 [Example 3.3, (R)-2-(1-(1-ethyl-1H-pyrazol-4-yl)piperidin-3-yl)-8-methyl-7-(oxazol-2-yl)-[1,2,4]triazolo[1,5-c]pyrimidin-5-amine]
85.5 nM	5.4 nM	CNC(=O)C(C)(C)n1cc(N2CCC[C@@H](c3nc4c(C)c(-c5ncco5)nc(N)n4n3)C2)cn1 [Example 3.4, (R)-2-(4-(3-(5-amino-8-methyl-7-(oxazol-2-yl)-[1,2,4]triazolo[1,5-c]pyrimidin-2-yl)piperidin-1-yl)-1H-pyrazol-1-yl)-N,2-dimethylpropanamide]
34.4 nM	1.3 nM	Cc1c(-c2ncco2)nc(N)n2nc([C@@H]3CCCN(c4cnn(CC(F)(F)F)c4)C3)nc12 [Example 3.5, (R)-8-methyl-7-(oxazol-2-yl)-2-(1-(1-(2,2,2-trifluoroethyl)-1H-pyrazol-4-yl)piperidin-3-yl)-[1,2,4]triazolo[1,5-c]pyrimidin-5-amine]
